According to patent publication US7407990B2, “Therapeutic Agents” (Knoll GmbH, priority 1999, dated 2008):

Tested on: male rhesus monkeys (Macaca mulatta)
Test: Cocaine discrimination testing (Study 1), pretreatment protocol
Assay type: in vivo
Details: cocaine alone
Method: Subjects: The subjects are four male rhesus monkeys (Macaca mulatta), weighing 5.7-8.1 kg and maintained on a diet of 3-4 monkey biscuits and one piece of fresh fruit per day. During the week, all food is delivered after the experimental session, whereas at weekends, food is delivered between 9 a.m. and noon. Water is freely available at all times. The monkeys are housed in a humidity and temperature controlled room with a 12 h light-dark cycle (lights on from 7 a.m. to 7 p.m.). Apparatus: Each monkey is housed individually in a well-ventilated, stainless steel chamber (56×71×69 cm) which includes an operant panel (28×28 cm) mounted on the front wall. Three response keys are arranged in a horizontal row 3.2 cm from the top of the operant panel. Each key can be transilluminated by red or green stimulus lights (Superbright LEDs). An externally mounted pellet dispenser delivers 1 g fruit-flavoured food pellets to a food receptacle beneath the operant response panel. A computer, located in a separate room, controls the operant panels and data collection. […]
During each response period, 3 dependent variables are determined: • 1) Percent injection-appropriate responding prior to delivery of the first reinforcer. • 2) Percent injection-appropriate responding for the entire response period • 3) Response Rate.
Monkeys meeting the following criteria during the training day immediately proceeding the test day and in at least 6 of 7 consecutive training sessions before this are used for discrimination testing: • 1) the percent injection-appropriate responding prior to delivery of the first reinforcer is ≧80% for all cycles; • 2) the percent injection-appropriate responding for the entire cycle is ≧90% for all cycles; • 3) Response rates during saline training cycles are >0.5 responses per second. […] In this protocol, a cumulative dose-effect curve for cocaine (0.013-1.3 mg/kg) is determined either alone or following pretreatment with the test compound, which is administered 20 min before the first dose of cocaine. […]

COC(=O)[C@H]1[C@@H](OC(=O)c2ccccc2)C[C@@H]2CC[C@H]1N2C.Cl [cocaine, Cocaine hydrochloride]
response rates (1.3 mg/kg): usually decreases response rates
cocaine-appropriate responding (cumulative 0.013-1.3 mg/kg, all four monkeys): dose-dependent increase in cocaine-appropriate responding
substitution for training stimulus (training dose 0.4 mg/kg, all monkeys): Complete substitution
